Measurements published in patent US11299496B2, “Ligands for alpha-7 nicotinic acetylcholine receptors and methods of treating neurological and inflammatory conditions” (Northeastern University, priority 2014, dated 2022).

Experiments:
CCI mice = experiment: Chronic constriction injury (CCI) model, mechanical allodynia (von Frey); type: in vivo, mouse; settings: for threshold for pain in the CCI model: dose of 1 mg/kg, FIG. 5B
Description: Mice were anesthetized with pentobarbital (45 mg/kg, i.p.). An incision was made just below the hipbone, parallel to the sciatic nerve. The right common sciatic nerve was exposed at the level proximal to the sciatic trifurcation, and a nerve segment 3-5 mm long was separated from surrounding connective tissue. Two loose ligatures with 6-0 silk suture were made around the nerve with a 1.0-1.5 mm interval between them. Muscles were closed with suture thread and the wound with wound clips. […] Any suture that remained after two weeks was removed from the healed surgical wound. Mechanical allodynia (von Frey test) was measured before and after drug injections.
The antiallodynic effects of test compounds were assessed in three experiments consisting of CCI mice and sham control mice. […] The anti-allodynic effects of alpha-7 nAChRs PAMs and ago-PAMs were tested (four doses and vehicle control, N=10 mice/group, administered i.p.) in the CCI model. Mice were assessed for mechanical allodynia 2 weeks after the CCI surgery. All these studies will be conducted in blinded manner. CCI and sham control mice received two conditioning sessions per day (vehicle in the morning and drug in the afternoon) over the course of 3 days, and were tested for a place preference on day 7 without any injections.
Pain behavioral data are presented as mean±S.E.M. (see FIGS. 5A and 5B). Statistical analysis was performed using the t-test or two-way analysis of variance test, followed by the post-hoc Bonferroni's test. All differences were considered significant at p<0.05, and significant differences are shown with asterisks in FIGS. 5A and 5B. ED50 values with 95% confidence limits (CL) were calculated by unweighted least-squares linear regression.

human alpha-7 nAChR [1] = biological target: T1, human alpha-7 nAChR (Homo sapiens, UniProt P36544); experiment: Two-electrode voltage clamp of alpha-7 nAChR expressed in Xenopus oocytes (net charge); type: cell-based; settings: area under the curve of current vs. time; for Charge Alone: compound alone acting as an allosteric agonist; for Charge +C: compound together with choline or ACh, includes PAM and ago-PAM activity
T1 construct: expressed in transfected cells; host or cells: Xenopus laevis oocytes (cRNA injection)
How it was run: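 Human α7 nAChR co-expressed with RIC-3 in Xenopus oocytes; two-electrode clamp at −60 mV, 12 s applications in Ringer's pH 7.3. Net charge integrated over 120 s from application, normalized to prior ACh controls; measured for compound alone and with choline or ACh; n≥4 oocytes.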

human alpha-7 nAChR [2] = biological target: T1, human alpha-7 nAChR; experiment: Electrophysiological evaluation of PAMs and ago-PAMs in Xenopus oocytes (direct activation, direct and primed potentiation); type: cell-based; settings: for direct activation when applied alone / primed potentiation of subsequent responses to ACh applied alone: FIGS. 2A-2F; for peak efficacy in the presence of ACh: GAT154 vs GAT155
Description: Electrophysiological evaluation in Xenopus oocytes was used to determine the potency and efficacy with which PAMs and ago-PAMs of the invention produce self-induced agonism and positive allosteric modulation of the orthosteric, agonist-induced activation of the alpha-7 nAChR. The ability of these compounds to increase the maximal channel influx and to enhance the activity of the receptor on its own as well as in presence of choline is denoted by Imax and EC50 respectively. The details of cDNA clones and RNA for injection was as published. Thakur et. al. 2013, J. Med. Chem. 2013 Nov. 14; 56(21):8943-7. doi: 10.1021/jm401267t). For experiments involving PAM and ago-PAM analogs, where standard levels of expression result in ion currents too large to be recorded in voltage clamp, experiments were typically conducted 1-3 days after RNA injection.
Two-electrode voltage clamp was conducted using OpusXpress 6000A (Molecular Devices, Union City, Calif.). Both the voltage and current electrodes were filled with 3 M KCl. Oocytes were voltage-clamped at −60 mV except when determining the effect of voltage on channel activation. The oocytes were bath-perfused with Ringer's solution (115 mM NaCl, 2.5 mM KCl, 1.8 mM CaCl2, 10 mM HEPES, and 1 μM atropine, pH 7.2) with a flow rate of 2 mL/min. To evaluate the effects of experimental compounds on ACh-evoked responses of alpha-7 nAChRs expressed in oocytes, the initial control responses were measured with two applications of ACh alone, before applications of experimental drugs alone or co-applications with ACh. The agonist solutions were applied from a 96-well plate via disposable tips, and the drugs were either co-applied with ACh by the OpusXpress pipette delivery system or bath-applied using the OpusXpress system to switch the running buffer. Drug applications were for 12 s followed by a 181 s washout period and usually alternated between controls and test solutions. After experimental drug applications, follow-up control applications of ACh were made to determine primed potentiation, desensitization or rundown of the receptors. Data were collected at 50 Hz, filtered at 20 Hz, analyzed by Clampfit 9.2 (Molecular Devices) and Excel (Microsoft, Redmond Wash.), and normalized to the averaged current of the two initial control responses. Data were expressed as mean±SEM from at least four oocytes for each experiment. For the concentration-response relationships, responses were normalized to the net charge of the most adjacent prior control.
A detailed comparative activity profile of select ago-PAMs/PAMs based on the structure of 4BP-TQS was obtained. […] They also functioned as direct PAMs, producing responses when co-applied with ACh. However, the primed potentiation of response to ACh alone was less after direct potentiation than after direct activation, due to residual induction of PAM-insensitive desensitization.

Solubility comparison = type: physicochemical
alpha-7 nAChRs = alpha-7 nAChRs (Homo sapiens, UniProt P36544); settings: cited from earlier work
Sequence of alpha-7 nAChRs (P36544 23-502): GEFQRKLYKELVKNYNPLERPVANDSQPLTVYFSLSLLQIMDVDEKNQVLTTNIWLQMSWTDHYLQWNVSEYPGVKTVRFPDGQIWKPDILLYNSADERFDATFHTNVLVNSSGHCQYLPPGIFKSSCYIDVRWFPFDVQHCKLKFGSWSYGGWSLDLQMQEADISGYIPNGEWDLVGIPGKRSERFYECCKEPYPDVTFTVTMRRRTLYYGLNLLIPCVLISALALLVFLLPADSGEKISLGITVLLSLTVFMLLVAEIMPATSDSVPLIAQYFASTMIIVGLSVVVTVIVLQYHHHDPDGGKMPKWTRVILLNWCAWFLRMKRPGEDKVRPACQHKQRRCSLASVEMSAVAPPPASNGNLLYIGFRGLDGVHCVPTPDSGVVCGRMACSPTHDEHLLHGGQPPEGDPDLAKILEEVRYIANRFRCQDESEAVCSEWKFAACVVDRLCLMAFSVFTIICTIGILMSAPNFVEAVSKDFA

T1 sequence (P36544 23-502): as above

Row | Charge Alone (human alpha-7 nAChR [1]) | Charge +C (human alpha-7 nAChR [1]) | direct activation when applied alone (human alpha-7 nAChR [2]) | primed potentiation of subsequent responses to ACh applied alone (human alpha-7 nAChR [2]) | peak efficacy in the presence of ACh (human alpha-7 nAChR [2]) | Structure (SMILES) | reversal of CCI effect (CCI mice; 1 mg/kg) | threshold for pain in the CCI model (CCI mice) | effectiveness relative to GAT155 in the CCI model (CCI mice; same dose of 1 mg/kg) | effect on sham mice (CCI mice; sham control mice) | solubility compared to GAT107 (Solubility comparison) | maximal response larger than ACh (alpha-7 nAChRs; agonist efficacy relative to ACh) [fold] | EC50 lower than ACh (alpha-7 nAChRs; agonist potency relative to ACh) [fold]
1 | 48 | 1145 | directly activated human alpha-7 nAChR | large primed potentiation | almost equal peak efficacy | NS(=O)(=O)c1ccc2c(c1)[C@H]1C=CC[C@H]1[C@@H](c1ccc(Br)s1)N2 (stereo in doubt) [Compound 36, 4-(5-bromothiophen-2-yl)-3a,4,5,9b-tetrahydro-3H-cyclopenta[c]quinoline-8-sulfonamide] | completely reversed the effect | effective in increasing the threshold for pain | twice as effective at every time point | without showing any significant effect on the sham mice | significantly better solubility compared to GAT107 | – | –
2 | 0 | 163 | negligible direct activation | large primed potentiation | almost equal peak efficacy | NS(=O)(=O)c1ccc2c(c1)[C@H]1C=CC[C@H]1[C@@H](c1cc(Br)cs1)N2 (stereo in doubt) [Compound 37, 4-(4-bromothiophen-2-yl)-3a,4,5,9b-tetrahydro-3H-cyclopenta[c]quinoline-8-sulfonamide] | – | effective in increasing the threshold for pain | – | – | significantly better solubility compared to GAT107 | – | –
3 | – | – | – | – | – | NS(=O)(=O)c1ccc2c(c1)C1C=CCC1C(c1ccc(Br)cc1)N2 (racemic) [Compound 4BP-TQS, 4-(4-bromophenyl)-3a,4,5,9b-tetrahydro-3H-cyclopenta[c]quinoline-8-sulfonamide] | – | – | – | – | – | 45 | 8
